Test results as given in a melting point compilation (Tetko et al.; mined from patent text by program, amines drawn as free bases though some values may be those of a salt).

Compared with `NP(N)(=S)N1CCCCC1`, `O=c1c(Cl)c(Cl)sn1C1CCCCC1` is higher in melting point: 97 to 102 °C for the first, 114 to 116 °C for the second.

First: CC(C)C(C#N)C(=O)NC(N)=O (configuration not stated)
Second: C[C@H](C(=O)O)[C@H](O)c1ccccc1
The melting point of the first is higher: 173 to 174 °C for the first, 89 to 90 °C for the second.

First: COC(=O)C(CCSC)N(C(=O)OC(C)(C)C)C(=O)c1ccc(N)c(OC)c1 (configuration not stated)
Second: CCOC(=O)CCC(=O)c1ccc(O)c(O)c1
The melting point of the first is higher: 163 to 165 °C for the first, 116 to 117 °C for the second.

First: c1ccc(COc2cccc(-c3nc(COc4ccc(CCCn5ccnc5)cc4)co3)c2)cc1
Second: CCCc1noc(/C=C/c2cn(-c3ccccc3)nc2OCc2ccc(OCc3nc(-c4ccco4)oc3C)c(OC)c2)n1
The melting point of the first is lower: 112 to 113 °C for the first, 192 to 193 °C for the second.

Compared with `COc1ccc(N2CCN(c3c(C)c(C)c4c(c3C)C(O)(c3ccccn3)C(C)(C)O4)CC2)cc1` (configuration not stated), `COc1ccc(C2=CCN(Cc3n[nH]c4c(Cl)cccc34)CC2)cc1` is higher in melting point: 113 to 115 °C for the first, 201 to 203 °C for the second.

First: Cc1nc2cc(Nc3nccc(-c4ccc(N5CCNCC5)nc4)n3)ccc2s1
Second: O=C(Nc1ccc2cc(CN3CCCC3)cnc2c1)c1ccc(-c2ccc(Cl)cc2)nc1
The melting point of the first is lower: 209 to 211 °C for the first, 223 to 225 °C for the second.

First: CN1C(=O)C=C(c2ccc3c(c2)CCCC3)C1=O
Second: COc1cccc2c(=O)[nH]c(C3CCN(C)CC3)cc12
The melting point of the first is lower: 104 to 107 °C for the first, 239 to 242 °C for the second.

First: O=C1C(=O)c2ccccc2C2=C1SCC1(CCN(S(=O)(=O)c3cccc(Cl)c3)CC1)O2
Second: CC1(N2C(=O)c3cccc(NC(=O)c4cccc(Cl)c4)c3C2=O)CCC(=O)NC1=O (configuration not stated)
The melting point of the first is lower: 255 to 256 °C for the first, 283 to 285 °C for the second.

First: N#Cc1cnc2cc3cc(O)ccc3cc2c1Nc1ccc(Cl)cc1Cl
Second: COc1cc(Nc2cc(-c3ccc(F)cc3)nc3ccccc23)ccc1Cl
The melting point of the first is lower: 267 to 269 °C for the first, 274 to 276 °C for the second.

First: Cn1c(=NC(=S)Nc2ccccc2)n(C)c2ccccc21
Second: CC(C)C(Br)=C(c1ccccc1)c1ccccc1
The melting point of the first is higher: 245 °C for the first, 112 to 114 °C for the second.

Compared with `CC(C)(C)OC(=O)N1CC2CN(Cc3ccccc3)CC(C1)O2`, `CC(C)(C)OC(=O)C(ON1CCNC1=Nc1c(Cl)cccc1Cl)c1ccccc1` (configuration not stated) is lower in melting point: 100 to 102 °C for the first, 88 to 90 °C for the second.

Compared with `Cc1nc(N)c2c(=O)n(C)c(=O)n(C)c2n1`, `Cn1c(=O)c2c(nc(C=Cc3cccc([N+](=O)[O-])c3)n2C)n(C)c1=O` is higher in melting point: 267 °C for the first, 306 to 308 °C for the second.

`CN1C(=O)[C@H](NC(=O)CCC2CCCCC2)N=C(c2ccccc2)c2ccccc21` and `CNC(=O)c1ccccc1-c1nc(-c2ccccc2)no1` cannot be ordered by melting point: 144 to 146 °C for the first, 145 to 146 °C for the second.

First: N#Cc1c[nH]c2cccc(O)c12
Second: O=C(O)c1cccc2cc3ccccc3cc12
The melting point of the first is lower: 206 to 207 °C for the first, 245 °C for the second.

First: CN1CCC(c2c(O)cc(O)c3c(=O)cc(Oc4ccccc4Cl)oc23)C(O)C1 (configuration not stated)
Second: CCOC(=O)c1c(O)c2cc(Cl)cnc2n(Cc2ccccc2)c1=O
The melting point of the first is lower: 105 °C for the first, 141 to 142 °C for the second.

Compared with `CCn1c(=O)c2[nH]c(/C=C/c3cccc(OC(F)(F)F)c3)nc2n(CC)c1=O`, `COc1cn(C)cc(-c2cccc(C(F)(F)F)c2)c1=O` is lower in melting point: 266 to 267 °C for the first, 173 to 175 °C for the second.

First: N#CC(c1ccc(F)cc1)c1ccc([N+](=O)[O-])cc1C(F)(F)F (configuration not stated)
Second: O=C(NCCSCc1cccc(C(F)(F)F)c1)c1c(Cl)cccc1Cl
The melting point of the first is higher: 68 °C for the first, 54 to 55 °C for the second.

Compared with `O=[N+]([O-])c1ccc(CCn2cccn2)cc1`, `O=c1c(CCc2nc3ccccc3s2)cc2cccnc2n1-c1cccc([N+](=O)[O-])c1` is higher in melting point: 92 to 93 °C for the first, 178 to 179 °C for the second.

First: CC1=CCc2c1sc1c2CN(c2ccccc2Cl)CC2N(C(=O)O)CCN12 (configuration not stated)
Second: CN1CCN(c2cccc3c2C[C@H](NC(=O)c2ccc(Br)cc2)CC3)CC1
The melting point of the first is lower: 160 to 162 °C for the first, 200 to 201 °C for the second.

First: COc1ccc(C=Cc2ccc3cccc(O)c3n2)cc1
Second: COc1ccc(Cn2nnc(-c3ccc(OC)c(C(=O)NCc4ccc(F)cc4)c3)n2)cc1
The melting point of the first is lower: 108 to 110 °C for the first, 156 to 158 °C for the second.

First: c1ccc(Nc2nnn[nH]2)cc1
Second: Cc1nnc2ccc(-c3cccc(F)c3)nn12
The melting point of the first is higher: 208 to 209 °C for the first, 184 to 186 °C for the second.

Compared with `CCc1noc(-c2cn(-c3cccc(Cl)c3)cn2)n1`, `O=c1nc(-c2cccc(CSc3ccccn3)n2)sc2ccccc12` is higher in melting point: 134 to 135 °C for the first, 151 to 152 °C for the second.

Going from `CC1CNCCC1n1c(=O)[nH]c2cc(Cl)ccc21` (configuration not stated) to `O=c1nc(CN2CCC[C@H](OCc3cc(Cl)cc(Cl)c3)[C@@H]2c2ccccc2)[nH][nH]1`, the melting point rises from 199 °C to > 220 °C.

Compared with `CS(=O)(=O)c1ccc(-c2cnn(Cc3ccccc3)c(=O)c2-c2ccc(Cl)cc2)cc1`, `COC(=O)Cc1ccc(OCCNC(=O)C2Cc3ccccc3N2S(=O)(=O)c2ccc(-c3cc(C)ccc3F)cc2)cc1` (configuration not stated) is lower in melting point: 157 to 159 °C for the first, 55 to 58 °C for the second.

First: COc1ccc2nc(C3=CCN(Cc4ccc(Cl)cc4)CC3)[nH]c2c1
Second: O=C(c1ccc(Cl)cc1)c1cc(CBr)ccc1Cl
The melting point of the first is higher: 203 to 205 °C for the first, 81 to 83 °C for the second.

First: O=C(c1ccccn1)c1cnn2c(-c3cccc(NC(=O)C4CC4)c3)ccnc12
Second: CC(C)n1nc(-c2sc(NC(=O)CNCc3cccnc3)nc2-c2ccccc2)ccc1=O
The melting point of the first is higher: 214 to 215 °C for the first, 156 to 158 °C for the second.

First: O=C(Cc1ccc(O)c(Cl)c1)Oc1cc(Cl)c(Cl)cc1Cl
Second: CCOC(=O)C1=Cc2cc(Cl)cc(-c3ccc(Cl)cc3)c2OC1C(F)(F)F (configuration not stated)
The melting point of the first is lower: 77 °C for the first, 114 to 116 °C for the second.

First: Cc1[nH]c(=O)ccc1-c1ccc(S(C)=O)cc1 (configuration not stated)
Second: CN1CCC(C)(c2nc(-c3ccncc3)c(-c3ccc(F)cc3)[nH]2)CC1
The melting point of the first is higher: 262 to 264 °C for the first, 227 to 229 °C for the second.

Compared with `CN1CCN(CCC(=O)N2c3ccccc3C(=O)Nc3cccnc32)CC1`, `CCOC(=O)c1cc2c(=O)n(C(C)C)c3ccccc3n2c1` is lower in melting point: 232 to 233 °C for the first, 169 to 170 °C for the second.

First: CCC1(C)CC(C)(C)c2cc(O)ccc21 (configuration not stated)
Second: CC(C)CNC(=O)c1sc(Oc2ccc3c(c2)OCO3)c2c1CCc1cnn(C)c1-2
The melting point of the first is lower: 86 °C for the first, 155 to 157 °C for the second.

First: CCCN(CCCCNc1ncc(Cc2ccnc(O)c2)c(=O)[nH]1)c1ccccn1
Second: CC(=O)OCCN(C(=O)CBr)c1ccc(Cl)cc1C(=O)c1ccccc1F
The melting point of the first is higher: 138 to 140 °C for the first, 84 to 88 °C for the second.

First: Nc1n[nH]c2cc(CN3CCN(Cc4cc5ccc(Cl)cc5s4)CC3=O)ccc12
Second: O=C(NC1C2CC3CC(C2)CC1C3)c1cc(-c2ccc(Cl)cc2)n(-c2ccc(Cl)cc2Cl)n1 (configuration not stated)
The melting point of the first is higher: 246 to 248 °C for the first, 203 °C for the second.

First: NC(=O)N1CCC(O[N+](=O)[O-])CC1
Second: Cc1cc(C)c2c(c1)nc(NC1CCN(CCO)CC1)n2Cc1nc(C)ccc1O
The melting point of the first is lower: 110 to 111 °C for the first, 143 °C for the second.

Compared with `Sc1cc(Cl)nc2ncnn12`, `CCOC(=O)C(C)=Cc1cc(F)c(F)c(F)c1` is lower in melting point: > 300 °C for the first, 54 °C for the second.

First: N#C/C(=C\c1ccc(O)c(O)c1)C(=O)NCCCCNC(=O)/C(C#N)=C/c1ccc(O)c(O)c1
Second: CCC(=O)C(C(=O)OC)C(C(=O)c1ccccc1)c1ccc(F)cc1 (configuration not stated)
The melting point of the first is higher: 283 °C for the first, 104 to 109 °C for the second.

Compared with `CCOC(=O)c1c(CN(CC)CC)nc2sc3c(c2c1-c1ccc(OC)c(OC)c1)CCN(C(=S)Nc1ccccc1)C3`, `CNc1c(C)cc(N)c([N+](=O)[O-])c1C` is lower in melting point: 104 to 106 °C for the first, 57 °C for the second.
